Structures can show the parent of a compound that is named as a salt.

One test relates to hPSC-SCs.
Settings: not given
As to `C[C@]12N[C@H](Cc3ccccc31)c1ccccc12` [Dizocilpine maleate], the z.score.t is recorded as −0.1538.

With `COc1c2c(nc3ccccc13)OC(C(C)(O)CO)C2` (centres unmarked) [Dubinidine], the z.score.t is given as 0.6554.

The molecule `CC[N+](C)(C)c1cccc(O)c1` [Edrophonium chloride] registered a z.score.t of 0.7913.

`C[C@]12CC[C@H](O)C[C@@H]1CC[C@@H]1[C@@H]2CC[C@]2(C)C(=O)CC[C@@H]12` [Epiandrosterone] gave a z.score.t of 1.457.

For the molecule `C[C@]12C[C@H]3S[C@H]3C[C@@H]1CC[C@@H]1[C@@H]2CC[C@]2(C)[C@@H](O)CC[C@@H]12` [Epitiostanol], the z.score.t is 0.1686.

Turning to `CC[C@]12CCCN3CCc4c(n(c5ccccc45)[C@](O)(C(=O)OC)C1)[C@@H]32` [Epivincamine], the z.score.t was −0.2486.

In turn, `CC(C)C[C@H]1C(=O)N2CCC[C@H]2[C@]2(O)O[C@](NC(=O)[C@@H]3C=C4c5cccc6[nH]cc(c56)C[C@H]4N(C)C3)(C(C)C)C(=O)N12` [Ergocryptine-alpha] returned a z.score.t of 0.495.

As for `O=c1ccc2cc(O[C@@H]3O[C@H](CO)[C@@H](O)[C@H](O)[C@H]3O)c(O)cc2o1` [Esculin Hydrate], the z.score.t was 1.053.

`CNC(=O)Oc1ccc2c(c1)[C@]1(C)CCN(C)[C@@H]1N2C.CNC(=O)Oc1ccc2c(c1)[C@]1(C)CCN(C)[C@@H]1N2C.O=S(=O)(O)O` [Eserine sulfate, physostigmine sulfate] showed a z.score.t of −0.3526.

The molecule `C#C[C@]1(O)CC[C@H]2[C@@H]3CCC4=CC(=O)CC[C@]4(C)[C@H]3CC[C@@]21C` [Ethisterone] showed a z.score.t of 0.2916.

For the molecule `CCOC(=O)c1cncn1[C@H](C)c1ccccc1` [Etomidate], the z.score.t is given as −0.1902.

Still in this test, the particulars now being: HTS viability of hPSC-SCs in the presence of 30 mM glucose; Prestwick library; Table S4.
On to `C[N+]1(C)CCC(=C(c2ccccc2)c2ccccc2)CC1` [Diphemanil methylsulfate], for which the z.score.t is 0.05523.

Regarding `CN(C)CCOC(c1ccccc1)c1ccccc1` [Diphenhydramine hydrochloride], the z.score.t is recorded as −0.5689.

For the molecule `OC(CCCN1CCCCC1)(c1ccccc1)c1ccccc1` [Diphenidol hydrochloride], the z.score.t was determined as 0.9906.

For `CN1CCC(OC(c2ccccc2)c2ccccc2)CC1` [Diphenylpyraline hydrochloride], the z.score.t was −0.7376.

On to `CNCC(O)c1ccc(OC(=O)C(C)(C)C)c(OC(=O)C(C)(C)C)c1` (centres unmarked) [Dipivefrin hydrochloride], for which the z.score.t is listed as −1.319.

As for `Cn1c(=O)c2c(ncn2CC(O)CO)n(C)c1=O` (centres unmarked) [Diprophylline], the z.score.t stood at 0.7415.

Take `OCCN(CCO)c1nc(N2CCCCC2)c2nc(N(CCO)CCO)nc(N3CCCCC3)c2n1` [Dipyridamole]: the z.score.t is given as −0.8392.

Take `Cc1c(N(C)CS(=O)(=O)[O-])c(=O)n(-c2ccccc2)n1C.[Na+]` [Dipyrone]: the z.score.t was −1.008.

On to `CC[C@H]1OC(=O)[C@H](C)[C@@H](O[C@H]2C[C@@](C)(OC)[C@@H](O)[C@H](C)O2)[C@H](C)[C@@H](O[C@@H]2O[C@H](C)C[C@H](N(C)C)[C@H]2O)[C@](C)(O)C[C@@H](C)[C@@H]2N[C@@H](COCCOC)O[C@H]([C@H]2C)[C@]1(C)O` [Dirithromycin], for which the z.score.t was determined as 0.3231.

Turning to `CC(C)N(CCC(C(N)=O)(c1ccccc1)c1ccccn1)C(C)C` (centres unmarked) [Disopyramide], the z.score.t is 0.4205.

On to `CCN(CC)C(=S)SSC(=S)N(CC)CC` [Disulfiram], for which the z.score.t is −1.291.

For the molecule `CC(CCc1ccc(O)cc1)NCCc1ccc(O)c(O)c1` (centres unmarked) [Dobutamine hydrochloride], the z.score.t is −0.3731.

In the case of `O=c1[nH]c2ccccc2n1CCCN1CCC(n2c(=O)[nH]c3cc(Cl)ccc32)CC1` [Domperidone], the z.score.t is recorded as 0.006455.

`CCN[C@H]1C[C@H](C)S(=O)(=O)c2sc(S(N)(=O)=O)cc21` [Dorzolamide hydrochloride]: the z.score.t is listed as −0.7873.

Take `CN(C)CC/C=C1\c2ccccc2CSc2ccccc21` [Dosulepin hydrochloride]: the z.score.t is listed as −0.8478.

In the case of `COc1cc2nc(N3CCN(C(=O)C4COc5ccccc5O4)CC3)nc(N)c2cc1OC` (centres unmarked) [Doxazosin mesylate], the z.score.t is −0.8683.

Turning to `CN(C)CCC=C1c2ccccc2COc2ccccc21` [Doxepin hydrochloride], the z.score.t came out at 0.1594.

For the molecule `COc1cccc2c1C(=O)c1c(O)c3c(c(O)c1C2=O)C[C@@](O)(C(=O)CO)C[C@@H]3O[C@H]1C[C@H](N)[C@H](O)[C@H](C)O1` [Doxorubicin hydrochloride], the z.score.t was −1.209.

With `CCO.C[C@H]1c2cccc(O)c2C(O)=C2C(=O)[C@]3(O)C(O)=C(C(N)=O)C(=O)[C@@H](N(C)C)[C@@H]3[C@@H](O)[C@@H]21.C[C@H]1c2cccc(O)c2C(O)=C2C(=O)[C@]3(O)C(O)=C(C(N)=O)C(=O)[C@@H](N(C)C)[C@@H]3[C@@H](O)[C@@H]21.Cl.Cl.O` [Doxycycline hyclate], the z.score.t is 1.148.

Consider `CN(C)CCOC(C)(c1ccccc1)c1ccccn1` (centres unmarked) [Doxylamine succinate], for which the z.score.t is recorded as −0.1538.

Consider `CCN(CC)CCOC(=O)C(c1ccccc1)C1CCCCC1` (centres unmarked) [Drofenine hydrochloride], for which the z.score.t was −0.1913.

For the molecule `O=C(CCCN1CC=C(n2c(=O)[nH]c3ccccc32)CC1)c1ccc(F)cc1` [Droperidol], the z.score.t is listed as 1.197.

As to `CCCCOc1ccc(C(=O)CCN2CCCCC2)cc1` [Dyclonine hydrochloride], the z.score.t was −0.6492.

As for `CC(=O)[C@H]1CC[C@H]2[C@@H]3C=CC4=CC(=O)CC[C@@]4(C)[C@@H]3CC[C@]12C` [Dydrogesterone], the z.score.t is recorded as 0.81.

Regarding `O=c1c2ccccc2[se]n1-c1ccccc1` [Ebselen], the z.score.t was found to be 0.3459.

For the molecule `Clc1ccc(COC(Cn2ccnc2)c2ccc(Cl)cc2Cl)cc1` (centres unmarked) [Econazole nitrate], the z.score.t is listed as −1.834.

For `Cc1c2ccncc2c(C)c2c1[nH]c1ccccc12` [Ellipticine], the z.score.t is recorded as −1.949.

Turning to `CC[C@H]1CN2CCc3cc(OC)c(OC)cc3[C@@H]2C[C@@H]1C[C@H]1NCCc2cc(OC)c(OC)cc21` [Emetine dihydrochloride], the z.score.t is reported as −1.991.

Turning to `CCOC(=O)[C@H](CCc1ccccc1)N[C@@H](C)C(=O)N1CCC[C@H]1C(=O)O` [Enalapril maleate], the z.score.t is on record as −0.8991.

Take `C=CCOC(Cn1ccnc1)c1ccc(Cl)cc1Cl` (centres unmarked) [Enilconazole]: the z.score.t was −1.535.

For the molecule `Oc1cc(O)c2c(c1)O[C@H](c1ccc(O)c(O)c1)[C@H](O)C2` [Epicatechin-(−)], the z.score.t is on record as −0.411.

On to `COc1cc(C)nc(-n2nc(C)cc2OC)n1` [Epirizole], for which the z.score.t is given as 1.191.

`C[C@]12CC[C@H]3C(=CCc4cc(O)ccc43)[C@@H]1CCC2=O` [Equilin]: the z.score.t turned out to be 0.9352.

With `CC[C@H]1OC(=O)[C@H](C)[C@@H](O[C@H]2C[C@@](C)(OC)[C@@H](O)[C@H](C)O2)[C@H](C)[C@@H](O[C@@H]2O[C@H](C)C[C@H](N(C)C)[C@H]2O)[C@](C)(O)C[C@@H](C)C(=O)[C@H](C)[C@@H](O)[C@]1(C)O` [Erythromycin], the z.score.t was −0.09426.

On to `O=c1ccc2cc(O)c(O)cc2o1` [Esculetin], for which the z.score.t was −0.7376.

On to `C[C@]12CC[C@@H]3c4ccc(O)cc4CC[C@H]3[C@@H]1CC[C@@H]2O` [Estradiol-17 beta], for which the z.score.t is −0.7953.

For `C[C@]12CC[C@@H]3c4ccc(O)cc4CC[C@H]3[C@@H]1C[C@@H](O)[C@@H]2O` [Estriol], the z.score.t was 0.7296.

Regarding `C[C@]12CC[C@@H]3c4ccc(O)cc4CC[C@H]3[C@@H]1CCC2=O` [Estrone], the z.score.t was determined as 1.784.

As to `C[C@]12CC[C@@H]3c4ccc(OS(=O)(=O)O)cc4CC[C@H]3[C@@H]1CCC2=O` [Estropipate], the z.score.t is 1.178.

For the molecule `O=C(Cn1ccnc1[N+](=O)[O-])NCCO` [Etanidazole], the z.score.t was 0.1469.

As for `C=C(CC)C(=O)c1ccc(OCC(=O)O)c(Cl)c1Cl` [Ethacrynic acid], the z.score.t is listed as 1.53.

Take `CC[C@@H](CO)NCCN[C@@H](CC)CO` [Ethambutol dihydrochloride]: the z.score.t is given as 1.13.

Take `CCN(CC)C(=O)c1ccc(O)c(OC)c1` [Ethamivan]: the z.score.t was determined as 1.211.

Regarding `O=S(=O)(O)c1cc(O)ccc1O` [Ethamsylate], the z.score.t is given as −0.4549.

For the molecule `CCOc1ccc(Cc2nccc3cc(OCC)c(OCC)cc23)cc1OCC` [Ethaverine hydrochloride], the z.score.t is 0.453.

As for `CCc1cc(C(N)=S)ccn1` [Ethionamide], the z.score.t stood at 0.3024.

Consider `CCN(CC)C(C)CN1c2ccccc2Sc2ccccc21` (centres unmarked) [Ethopropazine hydrochloride], for which the z.score.t was 0.2139.

On to `CCC1(C)CC(=O)NC1=O` (centres unmarked) [Ethosuximide], for which the z.score.t amounted to 0.4064.

On to `CCN1C(=O)NC(c2ccccc2)C1=O` (centres unmarked) [Ethotoin], for which the z.score.t is −0.6988.

On to `CCOc1ccc2c(c1)C(C)=CC(C)(C)N2` [Ethoxyquin], for which the z.score.t is given as −1.23.

For the molecule `C#C[C@]1(OC(C)=O)CC[C@H]2[C@@H]3CCC4=C[C@@H](OC(C)=O)CC[C@@H]4[C@H]3CC[C@@]21C` [Ethynodiol diacetate], the z.score.t is −0.3895.

In the case of `C#C[C@]1(O)CC[C@H]2[C@@H]3CCc4cc(OC)ccc4[C@H]3CC[C@@]21C` [Ethynylestradiol 3-methyl ether], the z.score.t amounted to 0.9696.

In the case of `CC(O)(P(=O)(O)O)P(=O)(O)O` [Etidronic acid, disodium salt], the z.score.t was −0.8317.

For `CCc1cccc(CC)c1NC(=O)CN(CC(=O)O)CC(=O)O` [Etifenin], the z.score.t is given as 1.002.

In the case of `CCNCC(O)c1cccc(O)c1` (centres unmarked) [Etilefrine hydrochloride], the z.score.t is reported as −0.4549.

`CCc1cccc2c3c([nH]c12)C(CC)(CC(=O)O)OCC3` (centres unmarked) [Etodolac]: the z.score.t is reported as −0.139.

For the molecule `Cn1c(=O)c2c(ncn2CCO)n(C)c1=O` [Etofylline], the z.score.t was 0.9225.

Values taken from patent US20260053861A1, “CELL COMPOSITIONS AND METHODS OF USING THE SAME” (THE REGENTS OF THE UNIVERSITY OF CALIFORNIA, priority 2022, published 2026).
